Reference: patent US8673914B2, “Use of phosphodiesterase inhibitors for treating multidrug resistance” (St. John's University, priority 2011, dated 2014)
Read-outs that look alike come from different tables or passages of the source.

How the values were obtained:
[1] = system: KB-C2 xenografts; assay: Mouse tumor xenografts; type: in vivo, mice; settings: sildenafil 75 mg/kg p.o. + paclitaxel 18 mg/kg i.p. vs paclitaxel alone
Description: Six-to-eight-week old male athymic NCR nude mice from Taconic (Hudson, N.Y.) were used for all xenografts. The mice were provided with sterilized food and water. The animal protocol was reviewed and approved by the Institutional Animal Care and Use Committee at St. John's University. […] When the tumors reached 0.5 cm, the mice were randomized into four groups, six mice per group: […] […] Mice were euthanized when the tumor weight exceeded 1 gram in the control group, and the tumors were excised and weighed.

[2] = system: cells expressing wild-type or mutant ABCG2; assay: BODIPY-prazosin flow cytometric assay; type: cell-based; settings: 50 μM; weaker than FTC at […]
Method: Flow cytometric assays were carried out as follows. […] Cells were then washed once in cold complete medium and then incubated for another 1 h at 37° C. in substrate-free media with or without the same described concentrations of the inhibitors to generate the efflux histograms. Subsequently, cells were washed twice with cold DPBS (Dulbecco's PBS) and placed on ice in a dark environment until ready for analysis. […] For all samples, at least 10,000 events were collected. Cell debris was eliminated by gating on forward versus side scatter, and dead cells were excluded on the basis of propidium iodide staining.

[3] = system: any of the cell lines used; assay: MTT assay, sildenafil alone; type: cell-based; settings: concentrations of up to 50 μM
Method: Cells in 96-well plates were preincubated with or without the reversal agents for 1 h and then different concentrations of chemotherapeutic drugs were added into designated wells. After 68 h of incubation, MTT solution (4 mg/mL) was added to each well, and the plate was further incubated for 4 h, allowing viable cells to change the yellow-colored MTT into dark-blue formazan crystals. Subsequently the medium was discarded, and […] of DMSO was added into each well to dissolve the formazan crystals. The absorbance was determined at 570 nm by an OPSYS MR Microplate Reader from DYNEX Technologies, Inc.

[4] = system: KB-3-1 cells; assay: [^3H]-paclitaxel accumulation (Example 2); type: cell-based, human; settings: parental KB-3-1
Method: (§1) After washing 3 times with ice-cold PBS, the cells were trypsinized and lysed in 10 mM lysis buffer (pH 7.4, containing 1% Triton X-100 and 0.2% SDS). Each sample was placed in scintillation fluid and radioactivity was measured in a Packard TRI-CARB 1900CA liquid scintillation analyzer from Packard Instrument Company, Inc.

[5] = system: MRP7 localization in HEK/MRP7 cells; assay: Immunofluorescence of MRP7; type: cell-based; settings: 5 μM; 72 h
Method: HEK/MRP7 cells (1×10^4) were seeded in 24 well plates and cultured overnight. […] Cells were washed with PBS and fixed with 4% paraformaldehyde for 15 min at room temperature and then rinsed with PBS three times. Nonspecific reaction was blocked with 1% BSA for 1 h at room temperature. A polyclonal antibody D19 against MRP7 (1:200) was added and incubated overnight. […] DAPI was used for nuclear staining. Immunofluorescent images were taken with an inverted microscope (model IX70; Olympus, Center Valley, Pa.) with IX-FLA fluorescence and CCD camera.

[6] = system: HEK/MRP7 cells; assay: [^3H]-paclitaxel accumulation (Example 4); type: cell-based; settings: 5 μM, 2 h
Method: (§2) The effect of PDE5 inhibitors on the intracellular accumulation of paclitaxel in HEK293-pcDNA3.1 and HEK/MRP7 cells was measured using [^3H]-paclitaxel. […] For efflux studies, the cells were treated the same as in the drug accumulation study, and then washed three times with ice-cold PBS, and suspended in fresh medium with or without PDE5 inhibitors. Aliquots were evenly collected at various time points (0, 30, 60, and 120 min). Samples from both accumulation and efflux experiments were washed with ice-cold PBS three times and placed in scintillation fluid, and the radioactivity was measured in a Packard TRI-CARB® 1900CA liquid scintillation analyzer from Packard Instrument Company, Inc. (Downers Grove, Ill.).

[7] = target: ABCG2 (Homo sapiens, UniProt Q9UNQ0); assay: Vi-sensitive ATPase assay (Example 2); type: biochemical; settings: read-out: concentration required for 50% stimulation of ATPase activity
Sequence of ABCG2 (Q9UNQ0 whole entry): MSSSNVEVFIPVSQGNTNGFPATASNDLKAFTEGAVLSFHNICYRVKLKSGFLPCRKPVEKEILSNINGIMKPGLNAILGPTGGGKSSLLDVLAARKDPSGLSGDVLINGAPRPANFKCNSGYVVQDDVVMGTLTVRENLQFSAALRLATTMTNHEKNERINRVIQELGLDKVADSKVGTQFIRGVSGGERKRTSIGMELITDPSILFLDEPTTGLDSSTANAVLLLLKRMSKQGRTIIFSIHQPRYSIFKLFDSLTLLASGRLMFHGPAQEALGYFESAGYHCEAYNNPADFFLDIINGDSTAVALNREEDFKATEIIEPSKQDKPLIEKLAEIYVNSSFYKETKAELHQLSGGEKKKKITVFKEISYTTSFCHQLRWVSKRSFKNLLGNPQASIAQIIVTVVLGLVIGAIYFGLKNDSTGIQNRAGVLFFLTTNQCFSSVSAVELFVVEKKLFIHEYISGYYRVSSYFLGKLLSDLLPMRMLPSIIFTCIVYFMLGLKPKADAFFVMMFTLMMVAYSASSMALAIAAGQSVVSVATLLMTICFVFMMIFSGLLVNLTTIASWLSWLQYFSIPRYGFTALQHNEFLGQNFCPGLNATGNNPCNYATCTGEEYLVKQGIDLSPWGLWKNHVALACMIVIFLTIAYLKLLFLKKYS
Method: (§3) The vanadate (Vi)-sensitive ATPase activity of ABCB1 or ABCG2 in the membrane vesicles of HIGH FIVE™ insect cells was measured as described in Ambudkar et al., supra. The membrane vesicles (100 μg of protein/mL) were incubated in ATPase assay buffer (50 mM MES, pH 6.8, 50 mM KCl, 5 mM sodium azide, 2 mM EGTA, 2 mM dithiothreitol, 1 mM ouabain, and 10 mM MgCl2) with or without 0.3 mM vanadate at 37° C. for 5 min, and then incubated with different concentrations of drugs at 37° C. for 3 min. The ATPase reaction was […] by the addition of 5 mM Mg-ATP. After incubating at 37° C. for 20 min, the reactions were stopped by adding 0.1 mL of 5% SDS solution. The liberated inorganic phosphate was measured as described in Shukla et al. (2006) Biochemistry 45:8940-51.

[8] = target: T1, ABCB1 (Homo sapiens, UniProt P08183); assay: Vi-sensitive ATPase assay (Example 2); type: biochemical; settings: read-out: concentration required for 50% stimulation of ATPase activity
T1 construct: made in house; host or cells: High Five insect cells (membrane vesicles / crude membranes)
T1 sequence (P08183 whole entry): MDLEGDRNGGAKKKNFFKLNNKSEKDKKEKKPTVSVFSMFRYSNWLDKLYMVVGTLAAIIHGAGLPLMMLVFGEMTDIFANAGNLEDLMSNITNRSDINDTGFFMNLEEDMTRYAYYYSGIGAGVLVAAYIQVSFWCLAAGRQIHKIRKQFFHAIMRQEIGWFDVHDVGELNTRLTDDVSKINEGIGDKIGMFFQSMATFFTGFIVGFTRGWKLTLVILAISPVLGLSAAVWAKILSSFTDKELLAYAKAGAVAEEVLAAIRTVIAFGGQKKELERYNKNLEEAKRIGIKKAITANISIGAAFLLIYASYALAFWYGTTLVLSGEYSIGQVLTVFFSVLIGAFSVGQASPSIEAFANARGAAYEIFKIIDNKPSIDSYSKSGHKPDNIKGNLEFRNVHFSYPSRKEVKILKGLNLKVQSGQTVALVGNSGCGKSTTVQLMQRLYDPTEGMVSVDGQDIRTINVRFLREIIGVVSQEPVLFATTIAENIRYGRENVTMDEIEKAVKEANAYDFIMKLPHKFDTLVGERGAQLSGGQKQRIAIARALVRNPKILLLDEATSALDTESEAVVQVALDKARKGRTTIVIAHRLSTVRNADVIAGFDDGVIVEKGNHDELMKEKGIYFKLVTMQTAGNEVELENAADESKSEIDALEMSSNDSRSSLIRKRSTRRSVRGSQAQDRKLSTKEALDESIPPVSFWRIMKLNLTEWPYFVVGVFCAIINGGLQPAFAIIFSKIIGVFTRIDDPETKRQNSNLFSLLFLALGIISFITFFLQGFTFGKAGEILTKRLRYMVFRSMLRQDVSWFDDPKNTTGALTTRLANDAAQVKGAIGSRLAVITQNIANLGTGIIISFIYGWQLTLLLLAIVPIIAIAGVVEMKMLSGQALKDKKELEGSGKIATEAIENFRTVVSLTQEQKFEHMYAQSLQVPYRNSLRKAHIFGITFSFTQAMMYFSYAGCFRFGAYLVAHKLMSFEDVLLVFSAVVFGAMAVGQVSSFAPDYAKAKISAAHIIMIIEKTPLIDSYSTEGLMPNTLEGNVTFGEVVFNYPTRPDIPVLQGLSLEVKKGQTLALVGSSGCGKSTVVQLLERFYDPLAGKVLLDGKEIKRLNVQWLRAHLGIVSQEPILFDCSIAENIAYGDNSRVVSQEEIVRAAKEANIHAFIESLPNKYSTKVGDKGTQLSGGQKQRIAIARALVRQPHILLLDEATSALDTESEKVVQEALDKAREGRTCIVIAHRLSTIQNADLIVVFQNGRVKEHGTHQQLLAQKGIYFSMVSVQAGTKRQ
Method: as §3

[9] = system: parental cells; assay: [^3H]-mitoxantrone accumulation; type: cell-based
Method: as §1

[10] = system: KB-C2 and KB-V1 cells (ABCB1); assay: [^3H]-paclitaxel accumulation (Example 2); type: cell-based, human; settings: 10 μM
Method: (§4) Cells in 24-well plates were preincubated with or without the reversal agents for 1 h at 37° C., then incubated with 0.1 μM [^3H]-paclitaxel or 0.2 μM [^3H]-mitoxantrone for 2 h in the presence or absence of the reversal agents at 37° C. After washing 3 times with ice-cold PBS, the cells were trypsinized and lysed in 10 mM lysis buffer (pH 7.4, containing 1% Triton X-100 and 0.2% SDS). Each sample was placed in scintillation fluid and radioactivity was measured in a Packard TRI-CARB 1900CA liquid scintillation analyzer from Packard Instrument Company, Inc.

[11] = system: ABCG2-overexpressing cell lines; assay: [^3H]-mitoxantrone accumulation; type: cell-based; settings: 10 or 50 μM
Method: as §4

[12] = system: HEK/MRP7 cells; assay: [^3H]-paclitaxel efflux (Example 4); type: cell-based; settings: 5 μM PDE5 inhibitor
Method: as §2

[13] = system: HEK293/pcDNA3.1; assay: MTT cytotoxicity/reversal assay (Example 1); type: cell-based; settings: alone
Method: The KB-C2 and KB-3-1 were kindly provided by Dr. Akiyama (Kagoshima University, Japan). HEK293-pcDNA3.1 and wild-type HEK/ABCG2 transfected cells were established by selection with G418 after transfecting HEK293 with either (1) empty pcDNA3.1 vector or (2) pcDNA3.1 vector containing full length of ABCG2 coding arginine (R) at amino acid position 482, and were then cultured in a medium with 2 mg/ml of G418 (ABCG2-482-R2 cells). Similarly, the HEK/MRP1 (ABCC1) and HEK/ABCB1 cells were generated by transfecting the HEK293 cells with either the MRP1 expression vector or the ABCB1 expression vector. All of the cell lines were grown in Dulbecco's modified Eagle's medium (DMEM) supplemented with 10% bovine serum, 100 units/ml penicillin, and […] streptomycin in a humidified incubator containing 5% CO2 at 37° C.
(§5) The MTT assay was used to assess cytotoxicity. The cultured cells were harvested with trypsin and resuspended in a final concentration of 4×10^3 cells/well for KB-3-1; 7.5×10^3 cells/well for KB-C2; and 8×10^3 for all of the other cell lines used in this study. Cells were seeded evenly in 96-well multiplates. […] After 68 h of incubation, 20 μl of the MTT solution (4 mg/ml) was added to each well, and the plate was further incubated for 4 h at 37° C., allowing viable cells to convert the yellow-colored MTT into dark-blue formazan crystals. Subsequently, the medium was discarded, and 100 μl of DMSO was added into each well to dissolve the formazan crystals, generating purple color. The absorbance was determined at 570 nm by an OPSYS Microplate Reader from DYNEX Technologies, Inc. (Chantilly, Va.). […] The degree of the reversal of multidrug resistance (MDR) was calculated by dividing the IC50 of an anticancer drug, e.g., an antineoplastic or chemotherapeutic drug (agent, compound), in a cell type in the absence of a reversal agent by the IC50 of the anticancer drug in the same cell type in the presence of the reversal agent. The IC50 values were calculated from survival curves using the Bliss method.

[14] = MTT cytotoxicity/reversal assay (Example 1); type: cell-based; settings: human; HEK/MRP1; alone; read-out: IC50 of vincristine
Method: (§6) The KB-C2 and KB-3-1 were kindly provided by Dr. Akiyama (Kagoshima University, Japan). […] Similarly, the HEK/MRP1 (ABCC1) and HEK/ABCB1 cells were generated by transfecting the HEK293 cells with either the MRP1 expression vector or the ABCB1 expression vector. All of the cell lines were grown in Dulbecco's modified Eagle's medium (DMEM) supplemented with 10% bovine serum, 100 units/ml penicillin, and […] streptomycin in a humidified incubator containing 5% CO2 at 37° C.
as §5

[15] = system: HEK/MRP1 (ABCC1); assay: MTT cytotoxicity/reversal assay (Example 1); type: cell-based; settings: alone
Method: as §6, §5

[16] = system: HEK/ABCB1 (ABCB1); assay: MTT cytotoxicity/reversal assay (Example 1); settings: HEK/ABCB1; alone
Method: as §6, §5

[17] = MTT cytotoxicity/reversal assay (Example 1); settings: human
Method: as §6, §5

Row | SMILES | tumor weight and volume [1] | accumulation of BODIPY-prazosin [2] | growth inhibition by sildenafil alone [3] | intracellular levels of [^3H]-paclitaxel [4] | MRP7 protein localization in plasma membranes [5] | increase of intracellular accumulation of [^3H]-paclitaxel [6] [fold] | EC50 [7] [nM] | EC50 [8] [nM] | intracellular levels of [^3H]-mitoxantrone [9] | intracellular level of [^3H]-paclitaxel [10] | intracellular [^3H]-mitoxantrone levels [11] | percentage of intracellular [^3H]-paclitaxel ([12]; 30 min) [%] | percentage of intracellular [^3H]-paclitaxel ([12]; 60 min) [%] | percentage of intracellular [^3H]-paclitaxel ([12]; 120 min) [%] | fold reversal, vincristine ([13]; HEK293/pcDNA3.1 (Table 6)) | fold reversal, vincristine ([13]; HEK293/pcDNA3.1) | IC50 at 68 h [14] [nM] | fold reversal, vincristine [15] | fold reversal, vincristine [16] | IC50 at 68 h [17] [nM]
1 | CCCc1nn(C)c2c(=O)nc(-c3cc(S(=O)(=O)N4CCN(C)CC4)ccc3OCC)[nH]c12 [Sildenafil, sildenafil] | significant reduction in tumor weight and volume | enhanced the accumulation of BODIPY-prazosin | did not inhibit the growth of any of the cell lines used | Neither sildenafil nor verapamil altered the intracellular levels | no alteration of MRP7 protein localization | 3.3 | 250 to 500 | 5000 to 10000 | Neither sildenafil nor FTC affected the intracellular levels | significantly increased the intracellular level | elevated intracellular [^3H]-mitoxantrone levels | 90.62 | 82.14 | 62.35 | – | – | – | – | – | –
2 | CC[C@]1(O)C[C@H]2CN(CCc3c([nH]c4ccccc34)[C@@](C(=O)OC)(c3cc4c(cc3OC)N(C=O)[C@H]3[C@@](O)(C(=O)OC)[C@H](OC(C)=O)[C@]5(CC)C=CCN6CC[C@]43[C@@H]65)C2)C1 [Vincristine, vincristine] | – | – | – | – | – | – | – | – | – | – | – | – | – | – | (1.00) | (1.00) | 10.6 ± 2.2 | (1.00) | (1.00) | 170000 ± 12900
